Results: publication PMC6301090 (Nature medicine, 2018)
pKd: −log10 of the molar value.

Target: ΔF508-NBD1 (CFTR nucleotide binding domain 1) (Homo sapiens, UniProt P13569, F494N/DEL508-508)
Experiment: SPR

pKd: < 3.00
Compound: O=C(O)Cc1c(Br)[nH]c2ccccc12 [BIA, bromoindole-3-acetic acid]
